These are literature values, as cited in patent publication US20060193787A1, “Nanoparticle-based drug delivery system” (priority 2005, published 2006).

The conditions of this data set: oral delivery.

Turning to `CC(=O)O[C@H]1C(=O)[C@@]2(C)[C@H]([C@H](OC(=O)c3ccccc3)[C@]3(O)C[C@H](OC(=O)[C@H](O)[C@@H](NC(=O)c4ccccc4)c4ccccc4)C(C)=C1C3(C)C)[C@]1(OC(C)=O)CO[C@@H]1C[C@@H]2O` [paclitaxel], the Bioavailability entry is recorded as “less than 1%”.
